{"source": "patent US6491922B1", "about": "“Methods and compounds for treating autoimmune and vascular disease” (Cornell Research Foundation, Inc., priority 1996, dated 2002)", "key": {"IL-1β transcription": {"system": "IL-1β transcription", "experiment": "In vitro transcription by nuclear run-off assay, IL-1β", "format": "cell-based, human", "details": "THP-1 nuclei; 2 μM LPG 2 h, LPS 2 μg/ml 4 h", "method": "Nuclei isolation. Procedures for isolating nuclei have been described in Ausubel, F. M. et al., Current Protocols in Molecular Biology 1(4.9):4.9.1-4.9.14 and 1(4.10):4.10.1-4.10.11 (1993), hereby incorporated by reference. THP-1 cells (5×10^7 cells) treated with medium or medium containing 2 μM LPG for 2 h were stimulated or not stimulated with 2 μg/ml LPS for 4 h, at 37° C. in 5% CO2. Cells were harvested by gentle scraping, washed twice with 5 ml ice cold PBS and centrifugation at 350×g for 5 min. After removal of supernatant, cells were gently loosen by 5 sec vortex and 4 ml NP-40 buffer was added by continuous vortex. The NP-40 buffer is composed of 10 mM Tris HCl (pH 7.4), 10 mM NaCl, 3 mM MgCl2, and 0.5% noridet P-40 (NP-40). The cell suspension was further vortexed at half maximal speed for 10 sec and placed on ice for 5 min. Cells were visually inspected to ascertain the separation of nuclei from cytophasmic material. Nuclei were wash once more with 4 ml NP-40 buffer by centrifugation at 350×g, 5 min. The pelleted nuclei were resuspended with 200 μl glycerol buffer and stored in liquid nitrogen until nuclear run-off assay. Glycerol buffer is composed of 50 mM Tris Hcl (pH 8.3), 40% (v/v) glycerol, 5 mM MgCl2, 0.1 mM ethylenediaminetetraacetic acid (EDTA).\nIn vitro transcription. […]"}, "[1]": {"system": "HIV p24 antigen, ACH-2 cells", "experiment": "HIV p24 antigen production in chronically HIV-infected ACH-2 cells", "format": "cell-based", "details": "72 h", "method": "LPG, the major surface molecule of Leishmania, has macrophage deactivating functions. Based on the ability of LPG to suppress the generation of ROI and cytokine gene expression, we evaluated the potential that LPG may similarly suppress HIV production. FIGS. 27A-D illustrate the effect of 2 μM LPG pretreatment for 2 h on the induction HIV from chronically HIV-infected monocytic and T cell lines respectively, U1 and ACH-2 cells. LPG treatment of U1 cells for 72 h inhibited basal production of HIV p24 antigen at basal and induction in response to PMA, TNF-α and LPS by 90%, 82%, 60% and 66%, respectively (FIGS. 27A, B). The suppression of HIV p24 antigen production was time-dependent (FIG. 27B). […] The inhibition was also time-dependent. The results are the mean of 2 separate experiments and the SD was less than 10%."}, "TNF-α transcription": {"system": "TNF-α transcription", "experiment": "Nuclear run-on assay, TNF-α transcription", "format": "cell-based, human", "details": "LPG 1 μM pretreatment; LPS 1 μg/ml"}, "IL-1β mRNA": {"system": "IL-1β mRNA", "experiment": "Northern analysis of IL-1β mRNA induction in THP-1 cells", "details": "for amount of IL-1β mRNA in response to LPS: LPS 2 μg/ml 4 h", "protocol": "Human monocytes were cultured in endotoxin free complete medium as previously described. […] THP-1 cells were maintained in RPMI-1640 supplemented with 2 mM L-glutamine, 100 U/ml penicillin-streptomycin, 5×10^−5 M β-mercaptoethanol, and 10% heat-inactivated fetal bovine serum (FBS). For experiments to determine the effect of LPG, THP-1 cells (10×10^6 per condition) were washed with RPMI 1640 and resuspended in complete medium composed of RPMI-1640 supplemented with 2 mM L-glutamine, 100 U/ml penicillin and 100 μg/ml streptomycin. These cells were cultured in 24-well plates with or without 0.01 to 2 μM LPG (0.1 to 20 μg/ml) for different times either before (−h), simultaneously with (0 h) or after (+h) the addition of inducers of IL-1β (eg., LPS, TNF-α, or S. epidermidis). Peripheral blood monocytes enumerated after detachment using a rubber policeman were similarly treated or not with LPG and cultured with stimuli. Cell were stimulated with 0.1 to 3 μg/ml LPS, TNF-α (50 ng/ml), 25 to 50 ng/ml PMA for 4 to 24 h, or opsonized heat-killed S. epiderimidis at ratio of 10 particles per cell.\nCells treated with or without LPG and/or inducers of IL-1β were harvested by gentle scrapping using a rubber policeman and sedimented by centrifugation at 500 g for 5 minutes in a microfuge. Total RNA was extracted using RNA STAT-60 solution (TEL-TEST “B” Inc., Friendswood, Tex.), based on a single step method for RNA isolation (P. Chomczynski and N. Sacchi, “Single-step Method of RNA Isolation by Acid Guanidinium Thiocyanate-phenol-chloroform Extraction,” Anal. Biochem., 162:156-59 (1987), hereby incorporated by reference), and quantitated by spectrophotometry. Equal amount of total RNA (15-20 μg per sample) was denatured, loaded onto 1.2% agarose-formaldehyde gel, run for 4 h at 30 volts and subsequently transferred by capillary action onto nylon membrane (0.45 μm pore size, NYTRAN, S&S, Keene, N.H.). Membranes were prehybridized at 42° C. for 4 h in prehybridization buffer (50% formamide, 6×SSPE, and 0.5% SDS), and hybridized in hybridization buffer (50% formamide, 6×SSPE, and 5 SDS) containing 10-15×10^6 cpm of random-priming ^32p-labeled IL-1β cDNA (Boehringer Mannheim GmbH, Mannheim, Germany). […] Washed membranes were exposed to KODAK X-OMAT AR films for 24 to 72 h and to phosphor screens (Molecular Dynamics Ltd., Kent, Tenn.) for 24-28 h. Quantitative analysis of the specific bands was performed using Phosphor Imager Analyzer. […] All percent suppression of IL-1β mRNA values were normalized by the amount of GAPDH present in each condition which varied less than 10% between conditions because equivalent amounts of total RNA were loaded for electrophoresis."}}, "data": [{"substance": "lipophosphoglycan [LPG]", "values": [{"measurement": "inhibition of LPS induced IL-1β mRNA transcription", "setting": "IL-1β transcription", "value": "approximately 65%"}, {"measurement": "inhibition of HIV p24 antigen production in response to LPS", "setting": "[1]; 2 μM LPG pretreatment 2 h", "value": 69, "unit": "%"}, {"measurement": "inhibition of HIV p24 antigen production in response to PMA", "setting": "[1]; 2 μM LPG pretreatment 2 h", "value": 81, "unit": "%"}, {"measurement": "inhibition of HIV p24 antigen production in response to TNF-α", "setting": "[1]; 2 μM LPG pretreatment 2 h", "value": 88, "unit": "%"}, {"measurement": "inhibition of basal production of HIV p24 antigen", "setting": "[1]; 2 μM LPG", "value": 62, "unit": "%"}, {"measurement": "suppression of endotoxin-mediated TNF-α transcription", "setting": "TNF-α transcription", "value": "−70", "unit": "%"}, {"measurement": "effect on IL-1β mRNA expression in monocytes", "setting": "IL-1β mRNA; LPG added simultaneously with the endotoxin", "value": "exerted an inhibitory effect"}, {"measurement": "effect of washing to remove LPG on LPG's ability to suppress LPS induction of IL-1β mRNA", "setting": "IL-1β mRNA; THP-1, 1 or 2 μM LPG 2 h, washed twice, then LPS 4 h", "value": "no effect"}, {"measurement": "suppression of LPS induction of IL-1β mRNA", "setting": "IL-1β mRNA; THP-1, LPG 2 μM added between 2 h before to 1 h after LPS 2 μg/ml", "value": "greater than 90%"}, {"measurement": "inhibition of TNF-α induced IL-1β mRNA", "setting": "IL-1β mRNA; THP-1, LPG 2 μM pretreatment 2 h, TNF-α 50 ng/ml, mean±SD, N=5", "value": "approximately 50%±10%"}, {"measurement": "inhibition of S. epidermidis-induced IL-1β mRNA", "setting": "IL-1β mRNA; THP-1, LPG 2 μM pretreatment for 2 h, N=3", "value": "30±10", "unit": "%"}, {"measurement": "suppression of S. epidermidis-induced IL-1β mRNA", "setting": "IL-1β mRNA; THP-1, LPG 2 μM simultaneous with opsonized S. epidermidis, N=3", "value": "greater than 80±19%"}, {"measurement": "suppression of PMA induction of IL-1β mRNA", "setting": "IL-1β mRNA; THP-1, LPG 2 μM, PMA 25 or 50 ng/ml, N=3", "value": "did not suppress"}, {"measurement": "inhibitory activity on LPS induction of IL-1β mRNA", "setting": "IL-1β mRNA; THP-1, LPG 1 or 2 μM added 4 h before LPS 2 μg/ml", "value": "lost"}, {"measurement": "effect on S. epidermidis-induced IL-1β mRNA", "setting": "IL-1β mRNA; THP-1, LPG 2 h after S. epidermidis induction", "value": "minimal to no demonstrable effect"}, {"measurement": "suppression of IL-1β mRNA", "setting": "IL-1β mRNA; THP-1, LPG added +2 h after LPS stimulation", "value": 70, "unit": "%"}, {"measurement": "amount of IL-1β mRNA in response to LPS", "setting": "IL-1β mRNA; THP-1, pretreated 2 h with 1 μM LPG", "value": "lower amounts of IL-1β mRNA"}, {"measurement": "amount of IL-1β mRNA in response to LPS", "setting": "IL-1β mRNA; THP-1, pretreated 2 h with 2 μM LPG", "value": "little or no IL-1β mRNA detected"}, {"measurement": "maximum inhibition of IL-1β mRNA (dose-dependent)", "setting": "IL-1β mRNA; THP-1, pretreated 2 h with LPG 0.01 to 2.0 μM, LPS 0.1 to 3 μg/ml", "value": "greater than 90%"}, {"measurement": "inhibition of endotoxin-mediated IL-1β mRNA production", "setting": "IL-1β mRNA; THP-1, pretreatment with LPG 2 μM, endotoxin 2 μg/ml", "value": "completely inhibited"}]}]}
